Measurements: US20230146455A1, “TREATMENT OF INFLAMMATORY DISEASES WITH PEPTIDES AND PHARMACEUTICAL COMPOSITIONS” (Yuyu Pharma, Inc., priority 2020, published 2023)
Values joined by “and” are separate entries in the source; they are usually repeats but may differ in a detail not shown here. Equal values may be shown once. Where a SMILES comes first, the peptide text is derived from it. [ ]: non-standard residue; d: D form. Hyp = O=C(O)[C@@H]1C[C@@H](O)CN1

Tested on: Fas Ligand
Experiment: Example 9 Luminex, LPS hPBMCs: Fas Ligand
Format: cell-based, human
Conditions: for Fas Ligand Concentration / Fas Ligand conc/live cell / MFI, bead Fas Ligand: single replicates
Description: Treatment Human PBMCs were pretreated with YY-101, YDE-011 and YDE-043 or reference compound; Xiidra® at various concentration (ranging from 1 nM to 100 uM) for 2 h before stimulation. An equal volume of 0.5% DMSO was used as a vehicle control. Then, the cells were treated with LPS at 5 ug/ml. The supernatants from treated cells were harvested at 24 h and placed in a 96 well for Luminex cytokine & chemokine profiling using a Luminex 200 multiplex assay (Luminex; R&D system, USA).
The main study arm with triplicate wells per group in a 24-well plate: • 1. Blank • 2. PBMC: 0.5% DMSO • 3. PBMC+LPS (5 ug/ml) • 4. PBMC+YY-101 100 uM • 5. PBMC+YY-101 10 uM • 6. PBMC+YY-101 1 uM • 7. PBMC+YY-101 0.1 uM • 8. PBMC+YY-101 0.01 uM • 9. PBMC+LPS (5 ug/ml)+Xiidra®100 uM • 10. PBMC+LPS (5 ug/ml)+Xiidra® 10 uM • 11. PBMC+LPS (5 ug/ml)+Xiidra® 1 uM • 12. PBMC+LPS (5 ug/ml)+Xiidra®0.1 uM • 13. PBMC+LPS (5 ug/ml)+Xiidra®0.01 uM • 14. PBMC+LPS (5 ug/ml)+Xiidra®0.001 uM • 15. PBMC+LPS (5 ug/ml)+YY-101 100 uM • 16. PBMC+LPS (5 ug/ml)+YY-101 10 uM • 17. PBMC+LPS (5 ug/ml)+YY-101 1 uM • 18. PBMC+LPS (5 ug/ml)+YY-101 0.1 uM • 19. PBMC+LPS (5 ug/ml)+YY-101 0.01 uM • 20. PBMC+LPS (5 ug/ml)+YY-101 0.001 uM • 21. PBMC+LPS (5 ug/ml)+YDE-011 100 uM • 22. PBMC+LPS (5 ug/ml)+YDE-011 10 uM • 23. PBMC+LPS (5 ug/ml)+YDE-011 1 uM • 24. PBMC+LPS (5 ug/ml)+YDE-011 0.1 uM • 25. PBMC+LPS (5 ug/ml)+YDE-011 0.01 uM • 26. PBMC+LPS (5 ug/ml)+YDE-011 0.001 uM • 27. PBMC+LPS (5 ug/ml)+YDE-043 100 uM • 28. PBMC+LPS (5 ug/ml)+YDE-043 10 uM • 29. PBMC+LPS (5 ug/ml)+YDE-043 1 uM • 30. PBMC+LPS (5 ug/ml)+YDE-043 0.1 uM • 31. PBMC+LPS (5 ug/ml)+YDE-043 0.01 uM • 32. PBMC+LPS (5 ug/ml)+YDE-043 0.001 uM
Multiplex assay was used to measure 30 cytokines and chemokines. The 1:2, 1:10 and 1:200 diluted cell supernatant and serial dilution of the standard were dispensed into a 96 well plate at 50 ul/well. Then, the pre-mixed cocktail of antibody-coated magnetic beads was dispensed at 50 ul/well and incubated at room temperature for 2 h in a horizontal orbital microplate shaker at 800±500 rpm. The beads were washed using a magnetic device to prevent loss. The biotin-antibody was dispensed in 50 ul of each well and incubated at room temperature for 1 h in a shaker at 800±500 rpm. After washing, streptavidin-PE was added at 50 ul/well and incubated at room temperature for 30 min in a shaker under the same conditions. Finally, after washing, wash buffer (100 ul/well) was added to the plate and incubated in a shaker for 2 min. The Luminex™ 200 setting were set according to the manufacturer's protocol. The data was calculated with a standard five-parameter logistic nonlinear regression analysis of the data (xPonent software 4.2, USA). The levels of cytokine/chemokine are normalized to the live cell counts (1×10^5 cells/mL) and presented as concentrations per mL (pg/mL or ng/mL).

[1] = PBMC + LPS(5 ug/ml) + test article 0.001 uM
[2] = PBMC + LPS(5 ug/ml) + test article 0.01 uM
[3] = PBMC + LPS(5 ug/ml) + test article 0.1 uM
[4] = PBMC + LPS(5 ug/ml) + test article 1 uM
[5] = PBMC + LPS(5 ug/ml) + test article 10 uM
[6] = PBMC + LPS(5 ug/ml) + test article 100 uM

Compound | Fas Ligand Concentration, Mean [1] | Fas Ligand conc/live cell, Mean [1] | MFI, bead Fas Ligand, Mean [1] | Fas Ligand Concentration [1] | Fas Ligand conc/live cell [1] | MFI, bead Fas Ligand [1] | Fas Ligand Concentration, Mean [2] | Fas Ligand conc/live cell, Mean [2] | MFI, bead Fas Ligand, Mean [2] | Fas Ligand Concentration [2] | Fas Ligand conc/live cell [2] | MFI, bead Fas Ligand [2] | Fas Ligand Concentration, Mean [3] | Fas Ligand conc/live cell, Mean [3] | MFI, bead Fas Ligand, Mean [3] | Fas Ligand Concentration [3] | Fas Ligand conc/live cell [3] | MFI, bead Fas Ligand [3] | Fas Ligand Concentration, Mean [4] | Fas Ligand conc/live cell, Mean [4] | also measured
CC(C)C[C@H](NC(=O)CNC(=O)[C@H](CC(C)C)NC(=O)[C@H](CCC(N)=O)NC(=O)CNC(=O)[C@@H]1C[C@@H](O)CN1)C(=O)N[C@@H](C)C(=O)NCC(=O)N1CCC[C@H]1C(=O)N[C@@H](CCCCN)C(=O)O [YDE-011] (H-[Hyp]GQLGLAGPK-OH) | 16.8 pg/mL | 3.2 pg/10^5 | 22.7 | 15.7 pg/mL and 18.4 pg/mL and 16.4 pg/mL | 3.5 pg/10^5 and 3.2 pg/10^5 and 2.8 pg/10^5 | 21.0 and 25.0 and 22.0 | 15.5 pg/mL | 2.7 pg/10^5 | 20.7 | 17.1 pg/mL and 13.7 pg/mL and 15.7 pg/mL | 2.7 pg/10^5 and 2.2 pg/10^5 and 3.1 pg/10^5 | 23.0 and 18.0 and 21.0 | 17.3 pg/mL | 3.0 pg/10^5 | 23.3 | 19.1 pg/mL and 17.7 pg/mL and 15.0 pg/mL | 2.9 pg/10^5 and 3.5 pg/10^5 and 2.6 pg/10^5 | 26.0 and 24.0 and 20.0 | 15.9 pg/mL | 3.2 pg/10^5 | MFI, bead Fas Ligand, Mean [4]: 21.3; Fas Ligand Concentration [4]: 17.4 pg/mL and 15.4 pg/mL and 15.0 pg/mL; Fas Ligand conc/live cell [4]: 3.2 pg/10^5 (2×) and 3.1 pg/10^5; MFI, bead Fas Ligand [4]: 23.5 and 20.5 and 20.0; Fas Ligand Concentration, Mean [5]: 17.3 pg/mL; Fas Ligand conc/live cell, Mean [5]: 3.3 pg/10^5; MFI, bead Fas Ligand, Mean [5]: 23.3; Fas Ligand Concentration [5]: 19.7 pg/mL and 17.7 pg/mL and 14.4 pg/mL; Fas Ligand conc/live cell [5]: 3.7 pg/10^5 and 3.1 pg/10^5 (2×); MFI, bead Fas Ligand [5]: 27.0 and 24.0 and 19.0; Fas Ligand Concentration, Mean [6]: 13.3 pg/mL; Fas Ligand conc/live cell, Mean [6]: 2.2 pg/10^5; MFI, bead Fas Ligand, Mean [6]: 17.3; Fas Ligand Concentration [6]: 11.7 pg/mL and 13.1 pg/mL and 15.0 pg/mL; Fas Ligand conc/live cell [6]: 1.9 pg/10^5 and 2.1 pg/10^5 and 2.5 pg/10^5; MFI, bead Fas Ligand [6]: 15.0 and 17.0 and 20.0
CC(C)C[C@H](NC(=O)[C@H](CCC(N)=O)NC(=O)CNC(=O)[C@@H]1C[C@@H](O)CN1)C(=O)NCC(=O)O [YDE-043] (H-[Hyp]GQLG-OH; N-terminus and C-terminus assumed) | 16.8 pg/mL | 3.4 pg/10^5 | 22.7 | 17.1 pg/mL and 20.4 pg/mL and 13.1 pg/mL | 3.9 pg/10^5 and 3.4 pg/10^5 and 2.8 pg/10^5 | 23.0 and 28.0 and 17.0 | 21.9 pg/mL | 4.3 pg/10^5 | 30.2 | 19.1 pg/mL and 15.7 pg/mL and 31.0 pg/mL | 4.2 pg/10^5 and 2.4 pg/10^5 and 6.2 pg/10^5 | 26.0 and 21.0 and 43.5 | 13.2 pg/mL | 2.5 pg/10^5 | 17.2 | 14.4 pg/mL and 12.7 pg/mL and 12.4 pg/mL | 2.9 pg/10^5 and 2.3 pg/10^5 and 2.2 pg/10^5 | 19.0 and 16.5 and 16.0 | 16.6 pg/mL | 3.2 pg/10^5 | MFI, bead Fas Ligand, Mean [4]: 22.3; Fas Ligand Concentration [4]: 13.7 pg/mL and 15.7 pg/mL and 20.4 pg/mL; Fas Ligand conc/live cell [4]: 2.4 pg/10^5 and 3.3 pg/10^5 and 3.9 pg/10^5; MFI, bead Fas Ligand [4]: 18.0 and 21.0 and 28.0; Fas Ligand Concentration, Mean [5]: 16.4 pg/mL; Fas Ligand conc/live cell, Mean [5]: 3.0 pg/10^5; MFI, bead Fas Ligand, Mean [5]: 22.0; Fas Ligand Concentration [5]: 16.4 pg/mL and 17.1 pg/mL and 15.7 pg/mL; Fas Ligand conc/live cell [5]: 3.2 pg/10^5 (2×) and 2.8 pg/10^5; MFI, bead Fas Ligand [5]: 22.0 and 23.0 and 21.0; Fas Ligand Concentration, Mean [6]: 13.2 pg/mL; Fas Ligand conc/live cell, Mean [6]: 2.1 pg/10^5; MFI, bead Fas Ligand, Mean [6]: 17.3; Fas Ligand Concentration [6]: 15.0 pg/mL and 11.4 pg/mL; Fas Ligand conc/live cell [6]: 2.4 pg/10^5 and 1.8 pg/10^5; MFI, bead Fas Ligand [6]: 20.0 and 14.5
